Reference: ChEMBL document CHEMBL3407331, “Discovery of AM-7209, a potent and selective 4-amidobenzoic acid inhibitor of the MDM2-p53 interaction” (J Med Chem, 2014)

Legend:
[1] = tested on: SJSA-1; assay: cells; details: Homo sapiens, SJSA-1, 16 h
[2] = biological target: T1, CYP3A4 (Homo sapiens, UniProt P08684); assay: Inhibition of CYP3A4 (unknown origin) at 3 uM; assay type: ADME
[3] = biological target: T2, PXR (NR1I2) (Homo sapiens, UniProt O75469); assay: Activation of human PXR at 2 uM relative to control; assay type: ADME; details: read-out: Activity
T2 sequence (O75469 whole entry): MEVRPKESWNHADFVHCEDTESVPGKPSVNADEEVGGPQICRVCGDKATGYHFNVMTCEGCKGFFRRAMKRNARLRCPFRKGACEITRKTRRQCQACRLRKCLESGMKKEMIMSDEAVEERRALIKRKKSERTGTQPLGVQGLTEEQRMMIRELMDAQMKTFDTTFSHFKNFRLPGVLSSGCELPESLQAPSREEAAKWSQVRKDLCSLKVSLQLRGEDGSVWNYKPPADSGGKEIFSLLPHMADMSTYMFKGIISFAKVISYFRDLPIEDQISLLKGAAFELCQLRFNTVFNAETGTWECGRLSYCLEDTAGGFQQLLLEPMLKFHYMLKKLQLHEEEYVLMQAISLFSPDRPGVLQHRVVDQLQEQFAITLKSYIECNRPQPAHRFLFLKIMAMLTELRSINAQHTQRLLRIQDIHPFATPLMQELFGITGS

[4] = biological target: T1, CYP3A4; assay: Time-dependent inhibition of CYP3A4 (unknown origin) assessed as remaining activity at 10 uM after 30 mins; assay type: ADME; details: read-out: Activity
[5] = tested on: Hepatocyte; assay: cells; details: Homo sapiens

T1 sequence (P08684 whole entry): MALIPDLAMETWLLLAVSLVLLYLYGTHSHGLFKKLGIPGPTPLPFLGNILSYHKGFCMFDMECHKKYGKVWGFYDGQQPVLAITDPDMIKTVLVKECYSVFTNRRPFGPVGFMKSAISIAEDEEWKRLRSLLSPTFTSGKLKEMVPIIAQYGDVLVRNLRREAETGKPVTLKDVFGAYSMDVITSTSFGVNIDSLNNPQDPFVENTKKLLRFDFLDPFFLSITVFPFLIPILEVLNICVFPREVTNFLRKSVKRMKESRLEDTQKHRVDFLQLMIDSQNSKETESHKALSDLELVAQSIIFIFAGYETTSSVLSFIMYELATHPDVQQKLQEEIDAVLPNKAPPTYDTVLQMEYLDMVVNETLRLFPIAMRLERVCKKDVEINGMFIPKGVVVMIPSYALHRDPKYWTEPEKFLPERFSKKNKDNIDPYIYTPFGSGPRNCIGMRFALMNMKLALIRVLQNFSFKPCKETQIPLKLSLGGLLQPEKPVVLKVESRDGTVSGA

Row | Compound | IC50 [1] | also measured
1 | CC(C)(C)S(=O)(=O)C[C@H](C1CC1)N1C(=O)[C@@](C)(CC(=O)N2CC(C(=O)O)C2)C[C@H](c2cccc(Cl)c2)[C@H]1c1ccc(Cl)cc1 | 46 nM | 
2 | CC(C)(C)S(=O)(=O)C[C@H](C1CC1)N1C(=O)[C@@](C)(CC(=O)N[C@H]2C[C@H](C(=O)O)C2)C[C@H](c2cccc(Cl)c2)[C@H]1c1ccc(Cl)cc1 | 13.5 nM | 
3 | CN(C(=O)C[C@@]1(C)C[C@H](c2cccc(Cl)c2)[C@@H](c2ccc(Cl)cc2)N([C@H](CS(=O)(=O)C(C)(C)C)C2CC2)C1=O)c1ccc(C(=O)O)cc1 | 198 nM | 
4 | CC(C)(C)S(=O)(=O)C[C@H](C1CC1)N1C(=O)[C@@](C)(CC(=O)Nc2ccc(C(=O)O)cn2)C[C@H](c2cccc(Cl)c2)[C@H]1c1ccc(Cl)cc1 | 9 nM | 
5 | CC1(C(=O)O)CCN(C(=O)C[C@@]2(C)C[C@H](c3cccc(Cl)c3)[C@@H](c3ccc(Cl)cc3)N([C@H](CS(=O)(=O)C(C)(C)C)C3CC3)C2=O)CC1 | 6.8 nM | 
6 | CC(C)(C)S(=O)(=O)C[C@H](C1CC1)N1C(=O)[C@@](C)(CC(=O)Nc2ccc(C(=O)O)cc2)C[C@H](c2cccc(Cl)c2)[C@H]1c1ccc(Cl)cc1 | 2.9 nM | inhibition at 3 µM [2]: < 10%; activity at 2 µM [3]: 0%; activity at 0.5 h, 10 µM [4]: 78%
7 | CC(C)(C)S(=O)(=O)C[C@H](C1CC1)N1C(=O)[C@@](C)(CC(=O)NC23CCC(C(=O)O)(CC2)CC3)C[C@H](c2cccc(Cl)c2)[C@H]1c1ccc(Cl)cc1 | 5.9 nM | inhibition at 3 µM [2]: < 10%; activity at 2 µM [3]: 0%; activity at 0.5 h, 10 µM [4]: 75%
8 | CC(C)(C)S(=O)(=O)C[C@H](C1CC1)N1C(=O)[C@@](C)(CC(=O)N[C@H]2CC[C@@H](C(=O)O)CC2)C[C@H](c2cccc(Cl)c2)[C@H]1c1ccc(Cl)cc1 | 17 nM | 
9 | CC(C)(C)S(=O)(=O)C[C@H](C1CC1)N1C(=O)[C@@](C)(CC(=O)O)C[C@H](c2cccc(Cl)c2)[C@H]1c1ccc(Cl)c(F)c1 |  | CLint [5]: 26 µL/min/10⁶ cells
10 | COc1cc(C(=O)O)ccc1NC(=O)C[C@@]1(C)C[C@H](c2cccc(Cl)c2)[C@@H](c2ccc(Cl)cc2)N([C@H](CS(=O)(=O)C(C)(C)C)C2CC2)C1=O | 6.9 nM | 
11 | CC(C)(C)S(=O)(=O)C[C@H](C1CC1)N1C(=O)[C@@](C)(CC(=O)Nc2ccccc2C(=O)O)C[C@H](c2cccc(Cl)c2)[C@H]1c1ccc(Cl)cc1 | 45 nM | 
12 | COc1cc(NC(=O)C[C@@]2(C)C[C@H](c3cccc(Cl)c3)[C@@H](c3ccc(Cl)cc3)N([C@H](CS(=O)(=O)C(C)(C)C)C3CC3)C2=O)ccc1C(N)=O | 15 nM | 
